Source: PubChem BioAssay (NCI)
“And” between values parts separate entries of the source, which are not always exact repeats. Equal values may be shown once.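 Where inhibition never reached the appropriate level, the endpoint shown equals the highest concentration tested. Otherwise, values were interpolated linearly from a five-concentration, 48-hour dose response in 96-well plates. At the GI50, growth is halved. TGI marks complete inhibition of growth.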

Assays:
Assay in all cases: DTP human tumour cell line panel, 48 h
[1] = system: SF-295 CNS
[2] = system: A549 NSCLC
[3] = system: SN12C renal
[4] = system: HCC-2998 colon
[5] = system: SK-MEL-28 melanoma
[6] = system: SF-268 CNS
[7] = system: SR leukemia
[8] = system: MCF7 breast
[9] = system: OVCAR-4 ovarian
[10] = system: HCT-15 colon

Row | SMILES | TGI [1] | TGI [2] | TGI [3] | TGI [4] | TGI [5] | TGI [6] | TGI [7] | TGI [8] | TGI [9] | TGI [10] | GI50 [1] | GI50 [4] | GI50 [8] | GI50 [10]
1 | COc1ccc(N2CCN(c3ccc4c(c3)NCC(=O)N4)CC2)cc1 | > 100 µM | > 100 µM | > 100 µM | > 100 µM | > 100 µM | > 100 µM | 44.4 µM | > 100 µM | 77.3 µM | > 100 µM | – | – | – | –
2 | CCCCCC(/C=C/[C@@H]1CC(=O)C[C@H]1O[Si](C)(C)C(C)(C)C)OCOCCOC (some centres not stated) | 25.5 µM | 33.5 µM | 24.1 µM | 29.8 µM | 10.5 µM | 10.5 µM | 6.37 µM | > 43.5 µM | 26.3 µM | 15.2 µM | – | – | – | –
3 | CCOC(OCC)C(CCc1ccccc1)c1c(N)nc(N)[nH]c1=O (configuration not stated) | > 100 µM | > 100 µM | > 100 µM | > 100 µM | > 100 µM | > 100 µM | > 100 µM | > 100 µM | > 100 µM | > 100 µM | – | – | – | –
4 | Oc1[nH]c2ccccc2c1N=NC(=S)N1CCCCCC1 | 3.86 µM | 6.57 µM | 10.6 µM | 7.1 µM | 7.61 µM | 11.8 µM | 3.44 µM | 10.9 µM | 3.91 µM | 10 µM | – | – | – | –
5 | CC(=O)Oc1ccc(OC(Oc2ccccc2)c2ccccc2)cc1 (configuration not stated) | > 100 µM | > 100 µM | 29.2 µM | 39.7 µM | 69 µM | > 100 µM | 54.5 µM | 82.2 µM | > 100 µM | > 100 µM | – | – | – | –
6 | O=C1c2ccccc2C(=O)N1C(=S)c1ccccc1 | > 100 µM | > 100 µM | > 100 µM | > 100 µM | > 100 µM | > 100 µM | > 100 µM | > 100 µM | > 100 µM | > 100 µM | – | – | – | –
7 | O=C(Nc1ccc2ccccc2c1)Nn1cnnc1 | > 100 µM | > 100 µM | – | > 100 µM | > 100 µM | > 100 µM | > 100 µM | > 100 µM | > 100 µM | > 100 µM | – | – | – | –
8 | ClCc1c(-c2ccccc2)nn(-c2ccccc2)c1CCl | 32.8 µM | 37.3 µM | 42.3 µM | 26.8 µM | 32.3 µM | 43.6 µM | 33.4 µM | 23.5 µM | 3.83 µM | 27 µM | – | – | – | –
9 | Cc1nnc(N)nc1/C=C\c1cccs1 | > 100 µM | > 100 µM | – | 30.9 µM | > 100 µM | 37.8 µM | > 100 µM | > 100 µM | 74.2 µM | 29.6 µM | – | – | – | –
10 | C1OCN2c3nonc3N3COCN4c5nonc5N1C2C43 (configuration not stated) | > 100 µM | > 100 µM | > 100 µM | > 100 µM | > 100 µM | > 100 µM | > 100 µM | > 100 µM | > 100 µM | > 100 µM | – | – | – | –
11 | N=C1N=C(N)c2cc3c(cc21)SCCSCCCSCCS3 | 31.1 µM | 49.8 µM | 33.2 µM | 27.8 µM | 31.4 µM | 32.4 µM | 37.6 µM | > 55.7 µM | 56.5 µM | 32.3 µM | – | – | – | –
12 | CC(=O)OCC1OC(OCC2OC(N3C(=S)N[C@H]([C@@H](O)[C@H](O)[C@H](O)CO)[C@H]3O)C(OC(C)=O)C(OC(C)=O)C2OC(C)=O)C(OC(C)=O)C(OC(C)=O)C1OC(C)=O (some centres not stated) | > 100 µM | > 100 µM | > 100 µM | > 100 µM | > 100 µM | > 100 µM | > 100 µM | > 100 µM | > 100 µM | > 100 µM | – | – | – | –
13 | Cc1cc(=O)c2c(O)c3c(O)cc(O)c4c5c(O)cc(O)c6c(O)c7c(=O)cc(C)c8c1c2c(c34)c(c65)c78 | > 100 µM and 37.6 µM | > 100 µM | > 100 µM | > 100 µM | > 100 µM | > 100 µM | > 100 µM | > 100 µM and 36.3 µM | > 100 µM | > 100 µM and 52 µM | > 100 µM and 16.6 µM | > 100 µM and 28.3 µM | > 100 µM and 16.6 µM | > 100 µM and 20.1 µM
14 | CCCCCCC(CCl)c1sc(-c2csc(CCNC(=O)OC(C)(C)C)n2)nc1C(=O)OC (configuration not stated) | > 100 µM | > 100 µM | 38.9 µM | 62.6 µM | > 100 µM | 52.4 µM | > 100 µM | 29.5 µM | 78 µM | 73.5 µM | – | – | – | –
15 | CC(/C=N/NC1=NCCCCN1)=N\NC1=NCCCCN1 | > 100 µM | > 100 µM | > 100 µM | > 100 µM | > 100 µM | > 100 µM | > 100 µM | > 100 µM | > 100 µM | > 100 µM | – | – | – | –
16 | Cc1ccccc1NC(=S)N=Nc1c(O)[nH]c2ccccc12 | > 100 µM | > 100 µM | > 100 µM | > 100 µM | 36.7 µM | 65.3 µM | > 100 µM | > 100 µM | > 100 µM | > 100 µM | – | – | – | –
17 | C=CCN1CC2CN=NC2(C#N)C1 (configuration not stated) | > 100 µM | > 100 µM | > 100 µM | > 100 µM | > 100 µM | > 100 µM | > 100 µM | > 100 µM | > 100 µM | > 100 µM | – | – | – | –
18 | CC1(C)Oc2ccc(Cl)cc2C12CC2 | 27 µM | 48.4 µM | 33.6 µM | 30.6 µM | 41.7 µM | 31.6 µM | 36.4 µM | 33.3 µM | 29.6 µM | 33 µM | – | – | – | –
